Reference: patent publication US6358885B1, “Substituted phenylheterocyclic herbicides” (Mississippi State University, priority 1992, dated 2002)

How the values were obtained:
[1] = system: chickweed; experiment: Test B preemergence/postemergence greenhouse plant response rating 0 to 10; format: in vivo, Stellaria media; conditions: 0 to 10 scale
In short: (§1)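 Planted seeds are treated preemergence with compound dissolved in a non-phytotoxic solvent, while postemergence applications go onto plants of two to eighteen cm. Plants stay in the greenhouse twelve to sixteen days and are then rated visually relative to controls.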

[2] = system: wild oat; experiment: as above; format: in vivo, Avena fatua; conditions: 0 to 10 scale
In short: as §1

[3] = system: downy brome; experiment: Test C preemergence/postemergence greenhouse plant response rating 0 to 100; format: in vivo, Bromus tectorum; conditions: POSTEMERGENCE
In short: (§2)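 Compounds in non-phytotoxic solvent applied preemergence to sandy loam one day after planting, postemergence at the 1–4 leaf stage, or to ~2.5 cm floodwater over silt loam.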

[4] = system: chickweed; experiment: as above; format: in vivo, Stellaria media; conditions: POSTEMERGENCE
In short: as §2

[5] = system: lambsquarters; experiment: as above; format: in vivo, Chenopodium album; conditions: POSTEMERGENCE
In short: as §2

[6] = system: corn; experiment: Test B preemergence/postemergence greenhouse plant response rating 0 to 10; format: in vivo, Zea mays; conditions: 0 to 10 scale
In short: as §1

[7] = system: wild buckwheat; experiment: Test C preemergence/postemergence greenhouse plant response rating 0 to 100; format: in vivo, Polygonum convolvulus; conditions: POSTEMERGENCE
In short: as §2

[8] = system: soybean; experiment: as above; format: in vivo, Glycine max; conditions: POSTEMERGENCE
In short: as §2

[9] = system: barley; experiment: as above; format: in vivo, Hordeum vulgare; conditions: POSTEMERGENCE
In short: as §2

[10] = system: sugar beet; experiment: as above; format: in vivo, Beta vulgaris; conditions: POSTEMERGENCE
In short: as §2

[11] = system: giant foxtail; experiment: Test B preemergence/postemergence greenhouse plant response rating 0 to 10; format: in vivo, Setaria faberii; conditions: 0 to 10 scale
In short: as §1

[12] = system: ryegrass; experiment: Test C preemergence/postemergence greenhouse plant response rating 0 to 100; format: in vivo, Lolium multiflorum; conditions: POSTEMERGENCE
In short: as §2

[13] = system: sorghum; experiment: Test B preemergence/postemergence greenhouse plant response rating 0 to 10; format: in vivo, Sorghum bicolor; conditions: 0 to 10 scale
In short: as §1

[14] = system: cotton; experiment: Test C preemergence/postemergence greenhouse plant response rating 0 to 100; format: in vivo, Gossypium hirsutum; conditions: POSTEMERGENCE
In short: as §2

[15] = system: duck salad; experiment: Test C flood test plant response rating 0 to 100; format: in vivo, Heteranthera limosa
In short: as §2

[16] = system: cheatgrass; experiment: Test B preemergence/postemergence greenhouse plant response rating 0 to 10; format: in vivo, Bromus secalinus; conditions: 0 to 10 scale
In short: as §1

[17] = system: wild buckwheat; experiment: as above; format: in vivo, Polygonum convolvulus; conditions: 0 to 10 scale
In short: as §1

[18] = system: velvetleaf; experiment: Test C preemergence/postemergence greenhouse plant response rating 0 to 100; format: in vivo, Abutilon theophrasti; conditions: POSTEMERGENCE
In short: as §2

In the case of `COCN1C(=O)COc2cc(F)c(-c3nn4c(c3Cl)CCCC4)cc21` [Compound 55], the “Plant response rating, Chickweed” value ([1]; POSTEMERGENCE, Rate 10 g/ha) is reported as 9, the “Plant response rating, Chickweed” value ([1]; POSTEMERGENCE, Rate 50 g/ha) is reported as 10 and the “Plant response rating, Chickweed” value ([1]; PREEMERGENCE, Rate 10 g/ha) is reported as 9. For the same compound, the “Plant response rating, Chickweed” value ([1]; PREEMERGENCE, Rate 50 g/ha) was 10, the “Plant response rating, Wild oat” value ([2]; POSTEMERGENCE, Rate 10 g/ha) was 6 and the “Plant response rating, Wild oat” value ([2]; POSTEMERGENCE, Rate 50 g/ha) was 7. The “Plant response rating, Wild oat” value ([2]; PREEMERGENCE, Rate 50 g/ha) was 9, the “Plant response rating Downy Brome” value ([3]; 62 g/ha, 0 to 100 scale) was 70 and the “Plant response rating (0 to 100), Downy Brome” value ([3]; Rate 1 g/ha) was 30. For the same compound, the “Plant response rating (0 to 100), Downy Brome” value ([3]; Rate 4 g/ha) was 40, the “Plant response rating (0 to 100), Downy Brome” value ([3]; Rate 16 g/ha) was 60 and the “Plant response rating, Chickweed” value ([4]; 62 g/ha, 0 to 100 scale) was 100. For the same compound, the “Plant response rating (0 to 100), Chickweed” value ([4]; Rate 1 g/ha) was 30, the “Plant response rating (0 to 100), Chickweed” value ([4]; Rate 4 g/ha) was 70 and the “Plant response rating (0 to 100), Chickweed” value ([4]; Rate 16 g/ha) was 100. For the same compound, the “Plant response rating Lambsquarters” value ([5]; 62 g/ha, 0 to 100 scale) was 100, the “Plant response rating (0 to 100), Lambsquarters” value ([5]; Rate 1 g/ha) was 100 and the “Plant response rating (0 to 100), Lambsquarters” value ([5]; Rate 4 g/ha) was 100. For the same compound, the “Plant response rating (0 to 100), Lambsquarters” value ([5]; Rate 16 g/ha) was 100, the “Plant response rating, Corn” value ([6]; POSTEMERGENCE, Rate 10 g/ha) was 3 and the “Plant response rating, Corn” value ([6]; POSTEMERGENCE, Rate 50 g/ha) was 5. For the same compound, the “Plant response rating, Corn” value ([6]; PREEMERGENCE, Rate 50 g/ha) was 1, the “Plant response rating, Wild buckwheat” value ([7]; 62 g/ha, 0 to 100 scale) was 100 and the “Plant response rating (0 to 100), Wild buckwheat” value ([7]; Rate 1 g/ha) was 60. The “Plant response rating (0 to 100), Wild buckwheat” value ([7]; Rate 4 g/ha) was 100, the “Plant response rating (0 to 100), Wild buckwheat” value ([7]; Rate 16 g/ha) was 100 and the “Plant response rating, Soybean” value ([8]; 62 g/ha, 0 to 100 scale) was 95. The “Plant response rating (0 to 100), Soybean” value ([8]; Rate 1 g/ha) was 40, the “Plant response rating (0 to 100), Soybean” value ([8]; Rate 4 g/ha) was 70 and the “Plant response rating (0 to 100), Soybean” value ([8]; Rate 16 g/ha) was 90. The “Plant response rating Barley Igri” value ([9]; 62 g/ha, 0 to 100 scale) was 50, the “Plant response rating (0 to 100), Barley Igri” value ([9]; Rate 1 g/ha) was 20 and the “Plant response rating (0 to 100), Barley Igri” value ([9]; Rate 4 g/ha) was 30. The “Plant response rating (0 to 100), Barley Igri” value ([9]; Rate 16 g/ha) was 40, the “Plant response rating, Sugar beet” value ([10]; 62 g/ha, 0 to 100 scale) was 100 and the “Plant response rating (0 to 100), Sugar beet” value ([10]; Rate 1 g/ha) was 100. The “Plant response rating (0 to 100), Sugar beet” value ([10]; Rate 4 g/ha) was 100, the “Plant response rating (0 to 100), Sugar beet” value ([10]; Rate 16 g/ha) was 100 and the “Plant response rating, Giant foxtail” value ([11]; POSTEMERGENCE, Rate 10 g/ha) was 4. For the same compound, the “Plant response rating, Giant foxtail” value ([11]; POSTEMERGENCE, Rate 50 g/ha) was 6, the “Plant response rating, Giant foxtail” value ([11]; PREEMERGENCE, Rate 10 g/ha) was 2 and the “Plant response rating, Giant foxtail” value ([11]; PREEMERGENCE, Rate 50 g/ha) was 8. The “Plant response rating Ryegrass” value ([12]; 62 g/ha, 0 to 100 scale) was 60, the “Plant response rating (0 to 100), Ryegrass” value ([12]; Rate 1 g/ha) was 10 and the “Plant response rating (0 to 100), Ryegrass” value ([12]; Rate 4 g/ha) was 30. The “Plant response rating (0 to 100), Ryegrass” value ([12]; Rate 16 g/ha) was 40, the “Plant response rating, Sorghum” value ([13]; POSTEMERGENCE, Rate 10 g/ha) was 3 and the “Plant response rating, Sorghum” value ([13]; POSTEMERGENCE, Rate 50 g/ha) was 4. The “Plant response rating, Sorghum” value ([13]; PREEMERGENCE, Rate 50 g/ha) was 0, the “Plant response rating, Cotton” value ([14]; 62 g/ha, 0 to 100 scale) was 100 and the “Plant response rating (0 to 100), Cotton” value ([14]; Rate 1 g/ha) was 90. For the same compound, the “Plant response rating (0 to 100), Cotton” value ([14]; Rate 4 g/ha) was 100, the “Plant response rating (0 to 100), Cotton” value ([14]; Rate 16 g/ha) was 100 and the “Plant response rating (0 to 100), Duck salad” value ([15]; POSTEMERGENCE section, flood test, Rate 1 g/ha) was 0. For the same compound, the “Plant response rating (0 to 100), Duck salad” value ([15]; POSTEMERGENCE section, flood test, Rate 4 g/ha) was 0, the “Plant response rating (0 to 100), Duck salad” value ([15]; Rate 16 g/ha, under POSTEMERGENCE head (flood test species)) was 10 and the “Plant response rating Duck salad” value ([15]; flood test species listed under POSTEMERGENCE, 62 g/ha, 0 to 100 scale) was 50. The “Plant response rating, Cheatgrass” value ([16]; POSTEMERGENCE, Rate 10 g/ha) was 6, the “Plant response rating, Cheatgrass” value ([16]; POSTEMERGENCE, Rate 50 g/ha) was 8 and the “Plant response rating, Cheatgrass” value ([16]; PREEMERGENCE, Rate 10 g/ha) was 1. For the same compound, the “Plant response rating, Cheatgrass” value ([16]; PREEMERGENCE, Rate 50 g/ha) was 5, the “Plant response rating, Wild buckwheat” value ([17]; POSTEMERGENCE, Rate 10 g/ha) was 10 and the “Plant response rating, Wild buckwheat” value ([17]; POSTEMERGENCE, Rate 50 g/ha) was 0. For the same compound, the “Plant response rating, Wild buckwheat” value ([17]; PREEMERGENCE, Rate 50 g/ha) was 10, the “Plant response rating, Velvetleaf” value ([18]; 62 g/ha, 0 to 100 scale) was 100 and the “Plant response rating (0 to 100), Velvetleaf” value ([18]; Rate 1 g/ha) was 80. The “Plant response rating (0 to 100), Velvetleaf” value ([18]; Rate 4 g/ha) was 100 and the “Plant response rating (0 to 100), Velvetleaf” value ([18]; Rate 16 g/ha) was 100.
